According to ChEMBL document CHEMBL3396978, “Design, synthesis of new β-carboline derivatives and their selective anti-HIV-2 activity” (Bioorg Med Chem Lett, 2015):
Calls of active or inactive are those of the source. No cut-off for these calls is given here.

What was measured:
[1] = system: Human immunodeficiency virus 2; experiment: Antiviral activity against HIV2 ROD infected in human MT4 cells assessed as protection against virus-induced cytotoxicity after 5 days by MTT assay; type: functional, organism-based; details: Human immunodeficiency virus 2, ISOLATE ROD, MT4, 120 h
[2] = system: Human immunodeficiency virus 1; experiment: Antiviral activity against HIV1 3B infected infected in human MT4 cells assessed as protection against virus-induced cytotoxicity after 5 days by MTT assay; type: functional, organism-based; details: Human immunodeficiency virus 1, 3B, MT4, 120 h
HeLa = experiment: Cytotoxicity against mock-infected human […] cells by MTT assay; type: functional
[3] = molecular target: Reverse transcriptase (Human immunodeficiency virus 2) (UniProt Q06347); experiment: Inhibition of HIV2 reverse transcriptase using poly(A).oligo(dT) template/primer after 30 mins at 200 ug/mL
[4] = Selectivity index, ratio of CC50 for mock-infected human […] cells to EC50 for HIV2 ROD infected in human MT4 cells; type: toxicity, cell-based; details: read-out: Ratio CC50/EC50
[5] = molecular target: Reverse transcriptase (Human immunodeficiency virus 2) (UniProt Q06347); experiment: Inhibition of HIV2 reverse transcriptase using poly(C).oligo(dG) template/primer after 30 mins at 200 ug/mL
[6] = system: Human immunodeficiency virus; experiment: Antiviral activity against HIV; type: functional, organism-based; details: Human immunodeficiency virus 1
[7] = system: Human immunodeficiency virus 1; experiment: Antiviral activity against HIV1; type: functional, organism-based
[8] = system: Human immunodeficiency virus 2; experiment: Antiviral activity against HIV2; type: functional, organism-based

Chain of Reverse transcriptase (Human immunodeficiency virus 2) (Q06347 as listed by the source): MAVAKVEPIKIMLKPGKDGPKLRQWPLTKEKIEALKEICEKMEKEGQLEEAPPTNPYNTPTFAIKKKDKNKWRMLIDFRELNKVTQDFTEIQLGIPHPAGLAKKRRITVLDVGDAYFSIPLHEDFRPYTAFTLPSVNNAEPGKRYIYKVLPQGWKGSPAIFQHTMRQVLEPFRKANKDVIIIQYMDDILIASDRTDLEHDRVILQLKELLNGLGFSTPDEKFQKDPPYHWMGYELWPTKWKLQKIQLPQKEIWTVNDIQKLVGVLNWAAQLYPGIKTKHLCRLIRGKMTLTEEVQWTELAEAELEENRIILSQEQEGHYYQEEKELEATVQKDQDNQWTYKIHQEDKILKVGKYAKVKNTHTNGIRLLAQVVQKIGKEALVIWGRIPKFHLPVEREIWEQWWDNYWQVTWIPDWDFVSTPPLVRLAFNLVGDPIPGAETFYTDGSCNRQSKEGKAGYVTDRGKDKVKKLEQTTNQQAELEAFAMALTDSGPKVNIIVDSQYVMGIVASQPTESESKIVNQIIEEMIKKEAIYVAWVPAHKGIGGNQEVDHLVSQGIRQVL

Cn1c2ccccc2c2cc(C(=O)N3CCN(c4ccc(Cl)cc4)CC3)nc(-c3ccccc3)c21
EC50 [1]: > 208 µM
EC50 [2]: > 208 µM
CC50 (HeLa): > 208 µM

Cn1c2ccccc2c2cc(C(=O)N3CCN(c4ccccc4)CC3)nc(-c3ccccc3)c21
inhibition [3]: inactive
EC50 [1]: 29.4 µM
EC50 [2]: > 224 µM
CC50 (HeLa): > 224 µM
selectivity ratio [4]: > 8
inhibition [5]: inactive

Cc1ccc(N2CCN(C(=O)c3cc4c5ccccc5n(C)c4c(-c4ccccc4)n3)CC2)cc1
inhibition [3]: inactive
EC50 [1]: 3.3 µM
EC50 [2]: > 29.6 µM
CC50 (HeLa): 29.6 µM
selectivity ratio [4]: 9
inhibition [5]: inactive

Cn1c2ccccc2c2cc(C(=O)N3CCN(c4ccc([N+](=O)[O-])cc4)CC3)nc(-c3ccccc3)c21
EC50 [1]: > 204 µM
EC50 [2]: > 204 µM
CC50 (HeLa): > 204 µM

Cn1c2ccccc2c2cc(C(=O)N3CCN(Cc4ccccc4)CC3)nc(-c3ccccc3)c21
EC50 [1]: > 21.7 µM
EC50 [2]: > 21.7 µM
CC50 (HeLa): 21.7 µM
selectivity ratio [4]: < 1

Cn1c2ccccc2c2cc(C(=O)N3CCN(c4ccccc4F)CC3)nc(-c3ccccc3)c21
inhibition [3]: inactive
EC50 [1]: 5.4 µM
EC50 [2]: > 50.6 µM
CC50 (HeLa): 50.6 µM
selectivity ratio [4]: 9
inhibition [5]: inactive

O=c1[nH]cnc2c1ncn2[C@H]1CC[C@@H](CO)O1 [DIDANOSINE]
EC50 [1]: 2.27 µM
EC50 [2]: 2.56 µM
CC50 (HeLa): > 50 µM
selectivity ratio [4]: > 21.7

Cn1c2ccccc2c2cc(C(=O)N3CCN(c4cccc(Cl)c4Cl)CC3)nc(-c3ccccc3)c21
EC50 [1]: > 63.9 µM
EC50 [2]: > 63.9 µM
CC50 (HeLa): 63.9 µM
selectivity ratio [4]: < 1

COc1ccccc1N1CCN(C(=O)c2cc3c4ccccc4n(C)c3c(-c3ccccc3)n2)CC1
inhibition [3]: inactive
EC50 [1]: 3.2 µM
EC50 [2]: > 25.3 µM
CC50 (HeLa): 25.3 µM
selectivity ratio [4]: 8
inhibition [5]: inactive

Nc1ccn([C@@H]2CS[C@H](CO)O2)c(=O)n1 [LAMIVUDINE]
EC50 [1]: 3.56 µM
EC50 [2]: 0.89 µM
CC50 (HeLa): > 20 µM
selectivity ratio [4]: > 5.6

Cn1c2ccccc2c2cc(C(=O)N3CCN(c4ccncc4)CC3)nc(-c3ccccc3)c21
EC50 [1]: > 4.02 µM
EC50 [2]: > 4.02 µM
CC50 (HeLa): 4.02 µM
selectivity ratio [4]: < 1

Cn1c2ccccc2c2cc(C(=O)N3CCN(c4ccccc4Cl)CC3)nc(-c3ccccc3)c21
EC50 [1]: > 23.6 µM
EC50 [2]: > 23.6 µM
CC50 (HeLa): 23.6 µM
selectivity ratio [4]: < 1

O=C(O)c1cc2c([nH]c3ccccc32)c(-c2ccc(CO)o2)n1 [FLAZINE]
EC50 [6]: 2.36 µM

COc1cccc(N2CCN(C(=O)c3cc4c5ccccc5n(C)c4c(-c4ccccc4)n3)CC2)c1
EC50 [1]: > 134 µM
EC50 [2]: > 134 µM
CC50 (HeLa): 134 µM
selectivity ratio [4]: < 1

Cc1cn([C@H]2C[C@H](N=[N+]=[N-])[C@@H](CO)O2)c(=O)[nH]c1=O [ZIDOVUDINE]
EC50 [1]: 0.0016 µM
EC50 [2]: 0.0019 µM
CC50 (HeLa): > 25 µM
selectivity ratio [4]: > 12500

Cn1c2ccccc2c2cc(C(=O)N3CCN(c4cccc(Cl)c4)CC3)nc(-c3ccccc3)c21
EC50 [1]: > 111 µM
EC50 [2]: > 111 µM
CC50 (HeLa): 111 µM
selectivity ratio [4]: < 1

COc1ccc(N2CCN(C(=O)c3cc4c5ccccc5n(C)c4c(-c4ccccc4)n3)CC2)cc1
EC50 [1]: > 210 µM
EC50 [2]: > 210 µM
CC50 (HeLa): > 210 µM

Cn1c2ccccc2c2cc(C(=O)N3CCN(c4ccccn4)CC3)nc(-c3ccccc3)c21
EC50 [1]: > 19.2 µM
EC50 [2]: > 19.2 µM
CC50 (HeLa): 19.2 µM
selectivity ratio [4]: < 1

Cn1c2ccccc2c2cc(C(=O)N3CCN(c4ccc(F)cc4)CC3)nc(-c3ccccc3)c21
inhibition [3]: inactive
EC50 [1]: 2.6 µM
EC50 [2]: > 189 µM
CC50 (HeLa): > 189 µM
selectivity ratio [4]: > 72
inhibition [5]: inactive

NC(=O)c1cc2c([nH]c3ccccc32)c(-c2ccc(CO)o2)n1
EC50 [7]: 0.38 µM
EC50 [8]: 0.57 µM

Cc1ccnc2c1NC(=O)c1cccnc1N2C1CC1 [NEVIRAPINE]
EC50 [1]: > 4 µM
EC50 [2]: 0.027 µM
CC50 (HeLa): > 4 µM

Cc1ccccc1N1CCN(C(=O)c2cc3c4ccccc4n(C)c3c(-c3ccccc3)n2)CC1
EC50 [1]: > 16.9 µM
EC50 [2]: > 16.9 µM
CC50 (HeLa): 16.9 µM
selectivity ratio [4]: < 1
